From ChEMBL document CHEMBL1201862, “PubChem BioAssay data set” (2004)
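Tested at 5 concentrations; 48 h exposure; 96-well plates; endpoints linearly interpolated, else capped at highest concentration. GI50 marks 50% less growth.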 The source made the active and inactive calls. Rule as the data show it: active = GI50 up to about 1.1 µM and inactive = higher.

Key:
Test in all cases: DTP human tumour cell line panel, 48 h
MCF7 = tested on: MCF7
MDA-MB-435 = tested on: MDA-MB-435
SK-MEL-28 = tested on: SK-MEL-28
U-251 = tested on: U-251
UACC-257 = tested on: UACC-257
MDA-MB-231 = tested on: MDA-MB-231
ACHN = tested on: ACHN
SF-268 = tested on: SF-268
RXF 393 = tested on: RXF 393
SK-MEL-2 = tested on: SK-MEL-2
OVCAR-3 = tested on: OVCAR-3
COLO 205 = tested on: COLO 205
NCI-H226 = tested on: NCI-H226
Malme-3M = tested on: Malme-3M
786-0 = tested on: 786-0
UO-31 = tested on: UO-31
HL-60 = tested on: HL-60
SK-OV-3 = tested on: SK-OV-3
BT-549 = tested on: BT-549
MOLT-4 = tested on: MOLT-4

Structure (SMILES)	GI50 (MCF7)	GI50 (MDA-MB-435)	GI50 (SK-MEL-28)	GI50 (U-251)	GI50 (UACC-257)	GI50 (MDA-MB-231)	GI50 (ACHN)	GI50 (SF-268)	GI50 (RXF 393)	GI50 (SK-MEL-2)	GI50 (OVCAR-3)	GI50 (COLO 205)	GI50 (NCI-H226)	GI50 (Malme-3M)	GI50 (786-0)	GI50 (UO-31)	GI50 (HL-60)	GI50 (SK-OV-3)	GI50 (BT-549)	GI50 (MOLT-4)
Cn1c(NN)nc(-c2ccc([N+](=O)[O-])cc2)c(C#N)c1=O	16.6 µM (inactive)	17.9 µM (inactive)	12.5 µM (inactive)	17.1 µM (inactive)	15.7 µM (inactive)	12.7 µM (inactive)	12.2 µM (inactive)	16 µM (inactive)	14.9 µM (inactive)	22.2 µM (inactive)	17.1 µM (inactive)	20 µM (inactive)	11 µM (inactive)	16.1 µM (inactive)	14.2 µM (inactive)	16.3 µM (inactive)	30.8 µM (inactive)	14.9 µM (inactive)	12.7 µM (inactive)	
Cc1ccc2c3c1O[C@H]1c4nc5ccccc5cc4C[C@@]4(O)[C@@H](C2)N(CC2CC2)CC[C@]314	10.4 µM (inactive)	11.4 µM (inactive)	19.6 µM (inactive)	5.74 µM (inactive)	24.7 µM (inactive)	11.2 µM (inactive)	10.4 µM (inactive)	7.03 µM (inactive)	8 µM (inactive)	18.5 µM (inactive)	11.6 µM (inactive)	5.2 µM (inactive)	10.6 µM (inactive)	14.5 µM (inactive)	10.8 µM (inactive)	10.4 µM (inactive)	9.23 µM (inactive)	14.1 µM (inactive)	11.2 µM (inactive)	2.5 µM (inactive)
C=C1c2nc3ccccc3n2C=C(c2ccc(C)cc2)N1c1ccccc1	2.47 µM (inactive)	0.439 µM (active)	5.58 µM (inactive)	3.27 µM (inactive)	7.93 µM (inactive)	4.92 µM (inactive)	15.1 µM (inactive)	12.9 µM (inactive)	3.36 µM (inactive)	4.49 µM (inactive)	2.38 µM (inactive)	3.04 µM (inactive)	2.43 µM (inactive)	2.62 µM (inactive)	3.48 µM (inactive)	9.62 µM (inactive)	1.85 µM (inactive)	7.45 µM (inactive)	7.78 µM (inactive)	4.41 µM (inactive)
O=[N+]([O-])c1cccc2nc3ccccc3c(NCCO)c12	0.0021 µM (active)	0.00179 µM (active)	0.00217 µM (active)	0.00281 µM (active)	0.00421 µM (active)	0.00215 µM (active)	0.00151 µM (active)	0.00326 µM (active)	0.00169 µM (active)	0.00502 µM (active)	0.000486 µM (active)	0.00167 µM (active)	0.00248 µM (active)	0.00331 µM (active)	0.00315 µM (active)	0.00244 µM (active)	0.00325 µM (active)	0.00387 µM (active)	0.00514 µM (active)	0.00407 µM (active)
CCNCC(=O)O[C@]1(CC)C(=O)OCc2c1cc1n(c2=O)Cc2cc3ccccc3nc2-1	0.0693 µM (active)	1.36 µM (inactive)	3.56 µM (inactive)	0.0614 µM (active)	0.585 µM (active)	6.71 µM (inactive)	0.0441 µM (active)	0.0767 µM (active)	0.264 µM (active)	2.77 µM (inactive)	2.07 µM (inactive)	1.69 µM (inactive)	0.115 µM (active)	1.49 µM (inactive)	0.0455 µM (active)	0.158 µM (active)	0.056 µM (active)	0.258 µM (active)	1.05 µM (active)	0.0195 µM (active)
